According to patent US20100204263A1, “METHOD OF TREATING MULTIDRUG RESISTANT CANCERS” (priority 2007, published 2010):
Like-named read-outs stand apart in the source and are kept apart here.

Legend:
[1] = system: MCF7 (human breast cancer) cell lines and a MCF7 cell line selected for resistance to doxorubicin; conditions: clonogenic
Experimental: The MCF7 resistant cell line has been characterized with over-expression of the multidrug resistant protein (MDR; p-glycoprotein).
In the clonogenic assay cells are treated in vitro and then suspended in a soft agar/cell media mixture. The cells are allowed to grow in definable and distinct clumps of cells, referred to as clones, based upon the survival of the cells originally treated. After a defined time span the number of clones is then counted by microscope.

Pgp, MRP-1 or BCRP [2] = experiment: Resistance Modifying Factors in three pairs of parental and resistant cell lines; assay type: cell-based, human; conditions: IC50 resistant without modulator / with modulator
Experimental: The Resistance Modifying Factors were calculated as IC50 of the resistant cell line in the absence of modulator/IC50 of the resistant cell line in the presence of modulator.

[3] = system: HL60 cells (Pgp negative); experiment: Drug accumulation assay, HL60; assay type: cell-based, human; conditions: HL60, increasing concentrations of amonafide
Experimental: (§1) Functional expression analyses of Pgp were performed on a BD FACSCalibur flow cytometer (Franklin Lakes, N.J.). […] Data analysis was performed using the Dako Cytomation Summit software, version 4.0 (Fort Collins, Colo.).

[4] = system: K562-K562/DOX cells (Pgp negative and Pgp positive); experiment: Drug accumulation assay, amonafide retention in K562 and K562/DOX; assay type: cell-based, human
Experimental: Functional expression analyses of Pgp were performed on a BD FACSCalibur flow cytometer (Franklin Lakes, N.J.). […] Data analysis was performed using the Dako Cytomation Summit software, version 4.0 (Fort Collins, Colo.). […] Differential Pgp staining of anti-Pgp treated cells was compared to that of control cells counted with the same number of gated events. All test samples were compared to their respective controls using Kolmogorov-Smirnov (KS) non-parametric statistics and expressed as D-values ranging from 0 to 1. These analyses were performed using the NCSS 2007 software (Kaysville, Utah). This approach addresses the maximum difference between two empirical distribution functions.

[5] = system: HL60 (human promyelocytic leukemia) cells; experiment: WST-1 cell proliferation assay, HL60; assay type: cell-based; conditions: HL-60, wild-type HL60, WST-1, read-out: IC50 HL60
Experimental: (§2) The HL60NCR resistant cell line has been characterized with over-expression of the multidrug resistant protein (MDR; p-glycoprotein). The over-expression ratio (level of MDR in resistant cell line over level of MDR in the parental cell line) is 8 fold with a 10 fold increase in pgp function. Pgp surface expression was measured by flow cytometry with the MRK16 antibody and Pgp function with the generic substrate, Rh123.
(§3) WST-1 is a water-soluble tetrazolium salt that can be used for cell proliferation or cell viability assays. The rate of WST-1 cleavage by mitochondrial dehydrogenases correlates with the number of viable cells in the culture. WST-1 is added directly to the cells ( 1/10th of the culture volume) and absorbance at 450 nm can be measured using an ELISA plate reader following a short incubation at 37° C.

Pgp [6] = target: T1, Pgp (Homo sapiens, UniProt P08183); conditions: digoxin + test compound
From the text: (§4) MDR1-MDCK are Madin Darby Canine Kidney cells transfected with the human multi-drug resistance gene. Confluent monolayers made from these cells can be used to access a test compound's potential role as a P-gp substrate. The assay set up is similar to the CaCo-2 assay.
(§5) Both the Caco-2 and MDR1-MDCK cells were used for this model.

[7] = system: K562 (human leukemia) cell lines and a K562 cell line selected for resistance to daunorubicin; experiment: MTS cell proliferation assay, K562 and K562 resistant cell lines; assay type: cell-based
From the text: MTS assay is an assay in which the bioreduction of the MTS reagent (3-(4,5-dimethylthiazol-2-yl)-5-(3-carboxymethoxyphenyl)-2-(4-sulfophenyl)-2H-tetrazolium)) by cells is being measured to assess metabolic activity of cells is based on the ability of a mitochondrial dehydrogenase enzyme from viable cells to cleave the tetrazolium rings of the MTS and form formazan crystals which are largely impermeable to cell membranes, thus resulting in its accumulation within healthy cells. Solubilization of the cells by the addition of a detergent results in the liberation of the crystals which are solubilized. The number of surviving cells is directly proportional to the level of the formazan product created. The color can then be quantified using a simple colorimetric assay. The results can be read on a multiwell scanning spectrophotometer (ELISA reader).

[8] = system: pretreatment secondary AML patient cells; experiment: Amonafide and daunorubicin efflux in cryopreserved cells of patients treated with amonafide+cytarabine; assay type: cell-based, human; conditions: cells from 15 patients treated with amonafide+cytarabine
Experimental: Cryopreserved cells were tested for viability and samples with viabilities less than 40% were considered inevaluable and discarded.
To measure drug uptake, the substrates were incubated with cells in medium containing each drug alone, or in combination with the modulator at the desired final concentrations. Cells were then washed and resuspended in PBS, and placed on ice. Drug-associated fluorescence was measured by flow cytometry using a FacScan flow cytometer (Becton Dickinson Immunocytometry Systems, San Jose, Calif.) equipped in standard fashion with an Argon laser for 488 nm excitation and a 585/42 band-pass filter (FL2) or a 670 long-pass (FL3) filter for emission collection. Data were analyzed with WinList software (Verity Software House, Topsham, Me.).

P-gp [9] = experiment: in vitro; conditions: human, MDCK-MDR1, efflux/influx ratio, Drug alone
Experimental: as §4
(§6) The samples were analyzed using LC/MS detection.

[10] = system: HL60/ADR cells (MRP-1 positive); experiment: Drug accumulation assay, HL60/ADR; assay type: cell-based, human
Experimental: Following uptake, the cells were washed with PBS and resuspended in fresh medium. An aliquot of cells from each sample was placed on ice for quantitation of baseline drug uptake. The remaining cells were incubated further and then resuspended in chilled fresh medium, and placed on ice for immediate flow cytometric analysis.
Functional expression analyses of MRP-1 were performed on a BD FACSCalibur flow cytometer (Franklin Lakes, N.J.). Cellular amonafide content was measured on the Cytopeia Influx flow cytometer (Seattle, Wash.). Data analysis was performed using the Dako Cytomation Summit software, version 4.0 (Fort Collins, Colo.).

[11] = system: HL60/ADR, a cell line selected for resistance to adriamycin (MRP-1); experiment: WST-1 cell proliferation assay, HL60/ADR
Experimental: The HL60/ADR resistant cell line has been characterized with over-expression of the multidrug resistant protein (MRP-1).
as §3

[12] = system: P388 (murine leukemia) cell lines and a P388 cell line selected for resistance to doxorubicin; conditions: MTT
From the text: The P388 resistant cell line has been characterized with over-expression of the multidrug resistant protein (MDR; p-glycoprotein).
MTT [3-(4,5-dimethylthiazol-2-yl)-2,5-diphenyltetrazolium bromide] assay, first described by Mosmann in 1983, is based on the ability of a mitochondrial dehydrogenase enzyme from viable cells to cleave the tetrazolium rings of the pale yellow MTT and form a dark blue formazan crystals which is largely impermeable to cell membranes, thus resulting in its accumulation within healthy cells. Solubilization of the cells by the addition of a detergent results in the liberation of the crystals which are solubilized. The number of surviving cells is directly proportional to the level of the formazan product created. The color can then be quantified using a simple colorimetric assay. The results can be read on a multiwell scanning spectrophotometer (ELISA reader).

[13] = system: IGROV1 (human ovarian) cell line; experiment: SRB cell proliferation assay, IGROV1; assay type: cell-based
Experimental: (§7) The T8 resistant cell line has been characterized with over-expression of the multidrug resistant protein BCRP (breast cancer resistance protein). Topotecan, which is a known substrate for BCRP, was used as a control.
(§8) Sulforhodamine-B (SRB) assay is performed to assess cell survival. SRB is a water-soluble dye that binds to the basic amino acids of the cellular proteins. Thus, colorimetric measurement of the bound dye provides an estimate of the total protein mass that is related to the cell number. The color can then be quantified using a simple colorimetric assay. The results can be read on a multiwell scanning spectrophotometer (ELISA reader).

Pgp, MRP-1 or BCRP [14] = experiment: Resistance Ratios in three pairs of parental and resistant cell lines; assay type: cell-based, human; conditions: IC50 resistant / IC50 parental; HL60-HL60VCR, HL60-HL60ADR, 8226-8226/MR20
Experimental: The Resistance Ratios were calculated as IC50 of the resistant cell line/IC50 of the parental cell line.

Pgp [15] = target: T1, Pgp
From the text: as §5

P-gp [16] = experiment: in vitro; conditions: human
Experimental: (§9) Caco-2 cell permeability studies were performed using Caco-2 cell monolayers grown on microporous membranes in multiwell insert systems. […] The samples were analyzed using LC/MS detection. […] This is the slope of the basolateral concentration versus time curve divided by the concentration of compound in the apical dosing chamber and the total area of the Caco-2 cell monolayer.

[17] = system: 8226/MR20 cells (BCRP positive); experiment: Drug accumulation assay, 8226/MR20; assay type: cell-based, human; conditions: 8226/MR20 ± FTC
Experimental: Functional expression analyses of BCRP were performed on a BD FACSCalibur flow cytometer (Franklin Lakes, N.J.). […] Data analysis was performed using the Dako Cytomation Summit software, version 4.0 (Fort Collins, Colo.).

[18] = system: HL60/VCR cells (Pgp positive); experiment: Drug accumulation assay, HL60/VCR; assay type: cell-based, human
Experimental: as §1

[19] = system: 8226/MR20, a cell line selected for resistance to mitoxantrone (BCRP); experiment: WST-1 cell proliferation assay, 8226/MR20
Experimental: The 8226/MR20 resistant cell line has been characterized with over-expression of the multidrug resistant protein (BCRP).
BCRP surface expression was measured by flow cytometry with the BXP21 antibody.
as §3

[20] = system: IGROV1-T8, a cell line selected for resistance to topotecan (increased BCRP expression); experiment: cells; conditions: Homo sapiens
Experimental: as §7, §8

[21] = system: HL60/VCR (HL60/MDR), a cell line selected for resistance to vincristine; experiment: WST-1 cell proliferation assay, HL60/VCR
Experimental: as §2, §3

Caco-2 cell monolayers [22] = experiment: Caco-2 cell monolayer permeability
Experimental: as §9

Caco-2 cell monolayers [23] = conditions: human, Caco-2, 120 min, 5 μM
Experimental: as §9

T1 sequence (P08183 whole entry): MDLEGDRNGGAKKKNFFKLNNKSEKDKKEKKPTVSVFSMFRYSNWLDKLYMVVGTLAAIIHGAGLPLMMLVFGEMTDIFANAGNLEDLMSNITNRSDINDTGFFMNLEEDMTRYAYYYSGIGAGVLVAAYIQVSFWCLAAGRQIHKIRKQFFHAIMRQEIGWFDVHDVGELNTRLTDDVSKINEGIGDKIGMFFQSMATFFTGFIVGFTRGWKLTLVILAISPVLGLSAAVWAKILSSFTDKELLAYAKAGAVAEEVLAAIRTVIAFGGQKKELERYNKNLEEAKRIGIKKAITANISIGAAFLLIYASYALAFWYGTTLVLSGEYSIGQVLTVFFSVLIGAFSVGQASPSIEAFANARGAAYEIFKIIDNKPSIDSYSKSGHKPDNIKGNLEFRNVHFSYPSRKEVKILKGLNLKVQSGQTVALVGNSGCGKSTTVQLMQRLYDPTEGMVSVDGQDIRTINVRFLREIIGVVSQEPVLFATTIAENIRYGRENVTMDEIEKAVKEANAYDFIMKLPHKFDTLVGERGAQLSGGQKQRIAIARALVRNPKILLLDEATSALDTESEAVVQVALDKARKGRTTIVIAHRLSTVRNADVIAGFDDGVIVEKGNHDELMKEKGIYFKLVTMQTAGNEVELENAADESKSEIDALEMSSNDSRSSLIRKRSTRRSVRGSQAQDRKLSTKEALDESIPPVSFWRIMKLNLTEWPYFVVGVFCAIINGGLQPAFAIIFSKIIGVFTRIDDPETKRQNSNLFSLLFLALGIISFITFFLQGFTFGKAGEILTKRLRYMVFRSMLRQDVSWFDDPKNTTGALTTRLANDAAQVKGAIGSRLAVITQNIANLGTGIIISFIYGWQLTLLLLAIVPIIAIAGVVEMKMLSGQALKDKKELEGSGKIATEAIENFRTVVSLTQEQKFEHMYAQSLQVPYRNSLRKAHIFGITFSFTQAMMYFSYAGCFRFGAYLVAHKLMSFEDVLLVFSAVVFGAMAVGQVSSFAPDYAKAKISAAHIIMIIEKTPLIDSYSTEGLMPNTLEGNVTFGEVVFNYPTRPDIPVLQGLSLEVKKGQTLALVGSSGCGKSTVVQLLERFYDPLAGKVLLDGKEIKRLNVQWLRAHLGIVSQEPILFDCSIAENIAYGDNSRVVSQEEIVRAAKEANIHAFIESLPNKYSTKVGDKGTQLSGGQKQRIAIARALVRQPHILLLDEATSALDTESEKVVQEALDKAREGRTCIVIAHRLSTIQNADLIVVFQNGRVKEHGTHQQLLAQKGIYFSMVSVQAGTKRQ
Experimental for MDR1-MDCK cells (P-gp): as §4, §6

SMILES: CN(C)CCN1C(=O)c2cccc3cc(N)cc(c23)C1=O [Amonafide, amonafide]
- potency in resistant vs non-resistant cell line [1]: equipotent in both cell lines
- substrate status from Resistance Modifying Factors (Pgp, MRP-1 or BCRP [2]): not a substrate for Pgp, MRP-1 or BCRP
- amonafide accumulation [3]: increases with increasing amonafide dose
- Amonafide uptake and efflux, comparison of the two cell lines ([4]; K562 vs K562/DOX): not significantly different between the two cell lines
- amonafide content in presence of Pgp inhibitor PKC412 ([4]; each cell line ± PKC412): did not significantly change
- IC50 [5]: 6.98 µM
- % Inhib. of control, digoxin efflux, MDR1-MDCK (Pgp [6]): 10%
- potency in resistant vs non-resistant cell line [7]: equipotent in both cell lines
- drug efflux in relation to clinical response (CR vs non-CR) [8]: no significant difference
- efflux ratio at 120 min, 5 μM (P-gp [9]): 2.2 ± 0.8
- Amonafide uptake and efflux in presence of MRP-1 inhibitor MK571 [10]: did not significantly change
- cytotoxicity in presence of MRP1 inhibitor MK571 ([11]; HL60/ADR ± MK571): unaffected
- potency in both cell lines ([11]; HL60 vs HL60/ADR): equipotent in both cell lines
- potency in resistant vs non-resistant cell line [12]: equipotent in both cell lines
- IC50 ([13]; IGROV-1, IGROV1, average, read-out: IC50 (average)): 2.93 µM
- IC50 ([13]; IGROV-1, IGROV1, experiment (1), read-out: IC50): 2.54 µM
- IC50 ([13]; IGROV-1, IGROV1, experiment (2), read-out: IC50): 3.73 µM
- IC50 ([13]; IGROV-1, IGROV1, experiment (3), read-out: IC50): 2.53 µM
- substrate status from Resistance Ratios (Pgp, MRP-1 or BCRP [14]): not a substrate for Pgp, MRP-1 or BCRP
- effect on digoxin efflux (Pgp [15]; Caco-2): no effect
- % Inhib. of control, digoxin efflux, Caco-2 (Pgp [15]; digoxin + test compound): 0%
- Papp B→A at 120 min, 5 μM (P-gp [16]; Caco-2): 26.8 ×10⁻⁶ cm/s
- efflux ratio at 120 min, 5 μM (P-gp [16]; Caco-2, efflux/influx ratio, Caco-2, +CSA): 1.1 ± 0.4
- efflux ratio at 120 min, 5 μM (P-gp [16]; Caco-2, efflux/influx ratio, Caco-2, Drug alone): 0.9 ± 0.2
- efflux ratio at 120 min, 5 μM (P-gp [16]; Caco-2, ratio of Papp(B-A)/Papp(A-B)): 1
- Amonafide uptake and efflux in presence of BCRP inhibitor FTC [17]: did not significantly change
- Amonafide uptake and efflux in presence of Pgp inhibitor PSC833 [18]: did not significantly change
- cytotoxicity in presence of BCRP inhibitor Fumitremorgin C ([19]; 8226/MR20 ± Fumitremorgin C): unaffected
- potency in both cell lines ([19]; 8226 vs 8226/MR20): equipotent in both cell lines
- IC50 ([20]; T8, experiment (1)): 5.18 µM
- IC50 ([20]; T8, experiment (2)): 4.87 µM
- IC50 ([20]; T8, experiment (3)): 5.83 µM
- IC50 ([20]; read-out: IC50 (average), T8, average): 5.29 µM
- Fold Change in IC50 ([21]; HL60/MDR vs HL60): 0.29
- cytotoxicity in presence of Pgp inhibitor PSC833 ([21]; HL60/VCR ± PSC833): unaffected
- potency in both cell lines ([21]; HL60 vs HL60/VCR): equipotent in both cell lines
- IC50 ([21]; Homo sapiens, HL60/VCR, read-out: IC50 HL60/MDR): 2.04 µM
- effect of addition of CSA on efflux (Caco-2 cell monolayers [22]; Caco-2): did not have any effect
- efflux classification (Caco-2 cell monolayers [22]; high efflux if ratio ≧3.0 and Papp(B-A) ≧1.0×10^−6 cm/s): not having significant efflux
- efflux/influx ratio, Caco-2, Drug alone (Caco-2 cell monolayers [23]): 0.9
- efflux/influx ratio, MDR1-MDCK, +CSA (MDR1-MDCK cells (P-gp); +CSA): 1.2 ± 0.8
- efflux/influx ratio, MDR1-MDCK, Drug alone (MDR1-MDCK cells (P-gp); Drug alone): 2.2
- effect of addition of CSA on efflux (MDR1-MDCK cells (P-gp); MDR1-MDCK): did not have any effect
- Pgp substrate / inhibitor status (conclusion) (MDR1-MDCK cells (P-gp); conclusion from Caco-2 and MDR1-MDCK studies): neither a substrate nor an inhibitor of Pgp
